Laboratory results as given in ChEMBL document CHEMBL1145050, “Discovery of (3S)-amino-(4R)-ethylpiperidinyl quinolones as potent antibacterial agents with a broad spectrum of activity and activity against resistant pathogens” (J Med Chem, 2003).
In brackets after ≈: the same amount, converted by molar mass.

Columns and labels:
Staphylococcus aureus [1] = experiment: Minimum inhibitory concentration against Staphylococcus aureus - methicillin resistant Ciprofloxacin sensitive strain MI300; type: functional
Streptococcus pneumoniae [2] = experiment: Minimum inhibitory concentration against Streptococcus pneumoniae - penicillin sensitive, strain STP64; type: functional
Pseudomonas aeruginosa = experiment: Minimum inhibitory concentration against Pseudomonas aeruginosa, strain PS96; type: functional
Staphylococcus aureus [3] = experiment: Minimum inhibitory concentration against Staphylococcus aureus - methicillin resistant Ciprofloxacin resistant, strain MI339; type: functional
DNA gyrase [4] = target: T1, DNA gyrase (Escherichia coli, UniProt P0AES4+P0AES6); experiment: Inhibition of Wild Type DNA gyrase Supercoiling Activity in Escherichia coli; type: protein-complex assay
Escherichia coli = experiment: Minimum inhibitory concentration against Escherichia coli, strain ES142; type: functional
DNA gyrase [5] = target: T1, DNA gyrase; experiment: Inhibition of Quinolone resistant gyrase Supercoiling Activity in Escherichia coli; type: protein-complex assay
Streptococcus pneumoniae [6] = experiment: Minimum inhibitory concentration against Streptococcus pneumoniae - penicillin resistant, strain STP51; type: functional
Staphylococcus aureus [7] = experiment: Minimum inhibitory concentration against Staphylococcus aureus (Methicillin resistant Ciprofloxacin sensitive) strain MI300; type: functional
Streptococcus pneumoniae [8] = experiment: Minimum inhibitory concentration against Streptococcus pneumoniae (Penicillin sensitive) strain STP64; type: functional
Staphylococcus aureus [9] = experiment: Minimum inhibitory concentration against Staphylococcus aureus (Methicillin resistant Ciprofloxacin resistant) strain MI339; type: functional
Streptococcus pneumoniae [10] = experiment: Minimum inhibitory concentration against Streptococcus pneumoniae (Penicillin resistant) strain STP51; type: functional

SMILES | MIC (Staphylococcus aureus [1]) | MIC (Streptococcus pneumoniae [2]) | MIC (Pseudomonas aeruginosa) | MIC (Staphylococcus aureus [3]) | IC50 (DNA gyrase [4]) | MIC (Escherichia coli) | IC50 (DNA gyrase [5]) | MIC (Streptococcus pneumoniae [6]) | MIC (Staphylococcus aureus [7]) | MIC (Streptococcus pneumoniae [8]) | MIC (Staphylococcus aureus [9]) | MIC (Streptococcus pneumoniae [10])
CC[C@@H]1CCN(c2ccc3c(=O)c(C(=O)O)cn(C4CC4)c3c2Cl)C[C@H]1N | < 0.004 µg/mL | < 0.004 µg/mL | 0.125 µg/mL (≈ 0.321 µM) | 0.31 µg/mL (≈ 0.795 µM) | 4.1 µM | < 0.004 µg/mL | 8.21 µM | – | – | – | – | –
N[C@H]1CCCN(c2nc3c(cc2F)c(=O)c(C(=O)O)cn3C2CC2)C1 | 2 µg/mL (≈ 5.77 µM) | 4 µg/mL (≈ 11.5 µM) | 1 µg/mL (≈ 2.89 µM) | > 4 µg/mL | 4.62 µM | 0.125 µg/mL (≈ 0.361 µM) | > 296 µM | 4 µg/mL (≈ 11.5 µM) | – | – | – | –
O=C(O)c1cn(C2CC2)c2c(Cl)c(N3CCNCC3)ccc2c1=O | 0.25 µg/mL (≈ 0.719 µM) | 4 µg/mL (≈ 11.5 µM) | 0.5 µg/mL (≈ 1.44 µM) | 8 µg/mL (≈ 23 µM) | – | – | – | – | – | – | – | –
N[C@H]1CCCN(c2ccc3c(=O)c(C(=O)O)cn(C4CC4)c3c2Cl)C1 | 0.016 µg/mL (≈ 0.0442 µM) | 0.12 µg/mL (≈ 0.332 µM) | 0.5 µg/mL (≈ 1.38 µM) | 1 µg/mL (≈ 2.76 µM) | 8.84 µM | 0.03 µg/mL (≈ 0.0829 µM) | 35.4 µM | < 0.008 µg/mL | – | – | – | –
CC[C@@H]1CCN(c2c(F)cc3c(=O)c(C(=O)O)cn(C4CC4)c3c2F)C[C@H]1N | 0.006 µg/mL (≈ 0.0153 µM) | 0.023 µg/mL (≈ 0.0588 µM) | 0.75 µg/mL (≈ 1.92 µM) | 0.188 µg/mL (≈ 0.48 µM) | 0.511 µM | 0.006 µg/mL (≈ 0.0153 µM) | 32.7 µM | 0.012 µg/mL (≈ 0.0307 µM) | – | – | – | –
COc1c(N2CCC[C@H](N)C2)c(F)cc2c(=O)c(C(=O)O)cn(C3CC3)c12 | 0.031 µg/mL (≈ 0.0826 µM) | 0.125 µg/mL (≈ 0.333 µM) | 1 µg/mL (≈ 2.66 µM) | 0.5 µg/mL (≈ 1.33 µM) | 4.26 µM | 0.031 µg/mL (≈ 0.0826 µM) | 17 µM | 0.063 µg/mL (≈ 0.168 µM) | – | – | – | –
COc1c(N2CC[C@@H]([C@@H](C)N)C2)c(F)cc2c(=O)c(C(=O)O)cn(C3CC3)c12 | 0.008 µg/mL (≈ 0.0205 µM) | 0.008 µg/mL (≈ 0.0205 µM) | 0.25 µg/mL (≈ 0.642 µM) | 0.016 µg/mL (≈ 0.0411 µM) | – | 0.008 µg/mL (≈ 0.0205 µM) | – | 0.008 µg/mL (≈ 0.0205 µM) | – | – | – | –
CC[C@@H]1CCN(c2cc3c(cc2F)c(=O)c(C(=O)O)cn3C2CC2)C[C@H]1N | 0.094 µg/mL (≈ 0.252 µM) | 0.75 µg/mL (≈ 2.01 µM) | 1.5 µg/mL (≈ 4.02 µM) | > 3 µg/mL | – | 0.012 µg/mL (≈ 0.0321 µM) | – | 0.375 µg/mL (≈ 1 µM) | – | – | – | –
N[C@H]1CCCN(c2c(F)cc3c(=O)c(C(=O)O)cn(C4CC4)c3c2F)C1 | – | – | 0.5 µg/mL (≈ 1.38 µM) | – | – | 0.03 µg/mL (≈ 0.0826 µM) | – | – | 0.13 µg/mL (≈ 0.358 µM) | 0.06 µg/mL (≈ 0.165 µM) | 4 µg/mL (≈ 11 µM) | 0.13 µg/mL (≈ 0.358 µM)
CC[C@@H]1CCN(c2c(F)cc3c(=O)c(C(=O)O)cn(C4CC4)c3c2OC)C[C@H]1N | 0.008 µg/mL (≈ 0.0198 µM) | 0.031 µg/mL (≈ 0.0768 µM) | 1 µg/mL (≈ 2.48 µM) | 0.125 µg/mL (≈ 0.31 µM) | 7.93 µM | 0.016 µg/mL (≈ 0.0397 µM) | 15.9 µM | 0.008 µg/mL (≈ 0.0198 µM) | – | – | – | –
CC[C@H]1CCN(c2ccc3c(=O)c(C(=O)O)cn(C4CC4)c3c2OC)C[C@H]1N | 0.25 µg/mL (≈ 0.649 µM) | 1 µg/mL (≈ 2.59 µM) | 4 µg/mL (≈ 10.4 µM) | 4 µg/mL (≈ 10.4 µM) | – | 0.125 µg/mL (≈ 0.324 µM) | – | 0.5 µg/mL (≈ 1.3 µM) | – | – | – | –
CC[C@@H]1CCN(c2nc3c(cc2F)c(=O)c(C(=O)O)cn3C2CC2)C[C@H]1N | 0.25 µg/mL (≈ 0.668 µM) | 4 µg/mL (≈ 10.7 µM) | 4 µg/mL (≈ 10.7 µM) | > 4 µg/mL | 68.4 µM | 0.03 µg/mL (≈ 0.0801 µM) | > 273 µM | 2 µg/mL (≈ 5.34 µM) | – | – | – | –
COc1c(N2CCC[C@H](N)C2)ccc2c(=O)c(C(=O)O)cn(C3CC3)c12 | < 0.06 µg/mL | 0.03 µg/mL (≈ 0.0839 µM) | 0.5 µg/mL (≈ 1.4 µM) | 1 µg/mL (≈ 2.8 µM) | 17.9 µM | 0.03 µg/mL (≈ 0.0839 µM) | 35.8 µM | < 0.008 µg/mL | – | – | – | –
CC[C@@H]1CCN(c2ccc3c(=O)c(C(=O)O)cn(C4CC4)c3c2OC)C[C@H]1N | < 0.004 µg/mL | < 0.003 µg/mL | 1 µg/mL (≈ 2.59 µM) | 0.25 µg/mL (≈ 0.649 µM) | 8.3 µM | 0.006 µg/mL (≈ 0.0156 µM) | 33.2 µM | 0.008 µg/mL (≈ 0.0208 µM) | – | – | – | –
O=C(O)c1cn(C2CC2)c2cc(N3CCNCC3)c(F)cc2c1=O [CIPROFLOXACIN] | 0.25 µg/mL (≈ 0.754 µM) | 0.25 µg/mL (≈ 0.754 µM) | 0.12 µg/mL (≈ 0.362 µM) | – | – | – | – | – | – | – | – | –
NC1CCN(c2c(F)cc3c(=O)c(C(=O)O)cn(C4CC4)c3c2Cl)C1 (stereo not given) [CLINAFLOXACIN] | 0.03 µg/mL (≈ 0.082 µM) | 0.03 µg/mL (≈ 0.082 µM) | 0.06 µg/mL (≈ 0.164 µM) | 0.5 µg/mL (≈ 1.37 µM) | 0.547 µM | 0.015 µg/mL (≈ 0.041 µM) | 2.73 µM | 0.15 µg/mL (≈ 0.41 µM) | – | – | – | –
COc1c(N2CCNC(C)C2)c(F)cc2c(=O)c(C(=O)O)cn(C3CC3)c12 (stereo not given) [GATIFLOXACIN] | 0.06 µg/mL (≈ 0.16 µM) | 0.12 µg/mL (≈ 0.32 µM) | 0.12 µg/mL (≈ 0.32 µM) | 4 µg/mL (≈ 10.7 µM) | – | 0.015 µg/mL (≈ 0.04 µM) | – | – | – | – | – | –
